In US20120135417A1, “METHODS FOR SCREENING AND IDENTIFYING COMPOUNDS” (priority 2009, published 2012):

Tests used:
Format in all cases: biochemical
[1] = system: FMN riboswitch (B. subtilis ribDEAHT operon); test: FMN riboswitch-mediated in vitro transcription termination assay, [α-33P]-ATP radiometric detection
Method: The FMN riboswitch within the leader sequence of the B. subtilis ribDEAHT operon was amplified by PCR from B. subtilis strain 168 (Bacillus Genetic Stock Center—designation 1A1). PCR of a B. subtilis genomic preparation is performed using Platinum® Taq DNA Polymerase High Fidelity from Invitrogen (catalog #11304-011) and the sense PCR and the antisense polyA PCR primers (SEQ ID: NO 1 and 2, or SEQ ID: NO 1 and 3, respectively, as shown in table below). […] These overhangs allow the ligation of DNA into the pCR®2.1-TOPO® vector using a TOPO TA Cloning® kit (Invitrogen catalog #K4500-01). Following transformation, colonies that contained disrupted β-galactosidase are picked and grown overnight. Correct insertion and orientation of PCR product are verified by restriction analysis and sequencing. PCR of the resulting clone is used to generate DNA sequences for use in in vitro transcription termination assays. […]
Synthetic DNA primers and a biotinylated oligo (dT) may be obtained from the Keck Foundation Biotechnology Resource Center at Yale University. […] 50 μl of Microscint™PS (PerkinElmer, catalog #6013631) are then added to wells and the plate is read in a TopCount®NXT™ microplate scintillation and luminescence counter (PerkinElmer). Other readers and counters may be also be used. […]

[2] = system: FMN riboswitch (B. subtilis ribDEAHT operon); test: FMN riboswitch-mediated in vitro transcription termination assay, RiboGreen fluorescence detection; settings: FIG. 14; RNA binding fluorophore (RiboGreen) detection, 10 μM each rNTP, 3 mM Mg2+, 4-hour reaction
[3] = system: TPP riboswitch (B. subtilis tenA operon); test: TPP riboswitch-mediated in vitro transcription termination assay, RiboGreen fluorescence detection; settings: FIG. 15; RNA binding fluorophore (RiboGreen) detection, 5 μM each rNTP, 2 mM Mg2+, 3-hour reaction
Method: In vitro plate-based transcription assay: In vitro transcription reactions are carried out at 25° C. in a total reaction volume of 50 μL. Reactions are performed in Reacti-Bind™ Streptavidin High Binding Capacity Coated 96-Well Plates (Pierce, catalog #15502) in assay buffer at a final concentration of 20 mM HEPES at pH 8.0, 60 mM KCl, 0.1 mM EDTA, and 0.005% BSA. To prepare plates, wells are washed three times with successive addition and aspiration of wash buffer containing 25 mM Tris-HCl at pH 7.4 and 150 mM NaCl. Each well is then given assay buffer, followed by addition of FMN into control wells or DMSO into test wells. Enzyme mixture containing sigma-saturated E. coli polymerase (Epicentre Biotechnologies, catolog #S90250) was then added to all wells. The reaction was initiated by the addition of a start mix containing ribonucleotides (Promega, Catalog #P1300), biotinylated oligo (dT)25, magnesium, [α-^33P]-labeled ATP and DNA sequence. […] 50 μl of Microscint™PS (PerkinElmer, catalog #6013631) are then added to wells and the plate is read in a TopCount®NXT™ microplate scintillation and luminescence counter (PerkinElmer). […]

E. coli RNA polymerase = biological target: T1, E. coli RNA polymerase (Escherichia coli, UniProt P0A8V2); test: In vitro plate-based transcription assay, inhibition of RNA polymerase activity (radiometric); settings: FIG. 10; 12.5 μM each rNTP, 2.5 mM Mg2+, 0.1 Unit RNA polymerase; read-out: IC50 value for inhibition of the in vitro transcription reaction
T1 construct: purchased Epicentre Biotechnologies S90250
Method: Synthetic DNA primers and a biotinylated oligo (dT) may be obtained from the Keck Foundation Biotechnology Resource Center at Yale University. Flavin mononucleotide (FMN) may be purchased from Fluka BioChemika (catalog #83810). [α-^33P] labeled Adenosine 5′ triphosphate was acquired from American Radiolabeled Chemicals, Inc. (catalog #ARP0131). In vitro plate-based transcription assay: In vitro transcription reactions are carried out at 25° C. in a total reaction volume of 50 μL. […] 50 μl of Microscint™PS (PerkinElmer, catalog #6013631) are then added to wells and the plate is read in a TopCount®NXT™ microplate scintillation and luminescence counter (PerkinElmer). Other readers and counters may be also be used.
The antibacterial rifampin is an RNA polymerase inhibitor (Liu, J., Feldman, P. A., Lippy, J. S., Bobkova, K., Kurilla, M. G, and Chung, T. D. Y., 2001 Analytical Biochemistry, 289, 239-245, Fujii, K., Saito, H., Tomioka, H., Mae, and T., Hosoe, K., 1995 Antimicrobial Agents and Chemotherapy, 39, 1489-1492, Morris, A. B., Brown, R. B., and Sands, M., 1993 Antimicrobial Agents and Chemotherapy 37, 1-7). Rifampin is titrated to inhibit in vitro transcription reaction and its inhibitory IC50 value is determined (FIG. 10). […]

T1 sequence (P0A8V2 whole entry): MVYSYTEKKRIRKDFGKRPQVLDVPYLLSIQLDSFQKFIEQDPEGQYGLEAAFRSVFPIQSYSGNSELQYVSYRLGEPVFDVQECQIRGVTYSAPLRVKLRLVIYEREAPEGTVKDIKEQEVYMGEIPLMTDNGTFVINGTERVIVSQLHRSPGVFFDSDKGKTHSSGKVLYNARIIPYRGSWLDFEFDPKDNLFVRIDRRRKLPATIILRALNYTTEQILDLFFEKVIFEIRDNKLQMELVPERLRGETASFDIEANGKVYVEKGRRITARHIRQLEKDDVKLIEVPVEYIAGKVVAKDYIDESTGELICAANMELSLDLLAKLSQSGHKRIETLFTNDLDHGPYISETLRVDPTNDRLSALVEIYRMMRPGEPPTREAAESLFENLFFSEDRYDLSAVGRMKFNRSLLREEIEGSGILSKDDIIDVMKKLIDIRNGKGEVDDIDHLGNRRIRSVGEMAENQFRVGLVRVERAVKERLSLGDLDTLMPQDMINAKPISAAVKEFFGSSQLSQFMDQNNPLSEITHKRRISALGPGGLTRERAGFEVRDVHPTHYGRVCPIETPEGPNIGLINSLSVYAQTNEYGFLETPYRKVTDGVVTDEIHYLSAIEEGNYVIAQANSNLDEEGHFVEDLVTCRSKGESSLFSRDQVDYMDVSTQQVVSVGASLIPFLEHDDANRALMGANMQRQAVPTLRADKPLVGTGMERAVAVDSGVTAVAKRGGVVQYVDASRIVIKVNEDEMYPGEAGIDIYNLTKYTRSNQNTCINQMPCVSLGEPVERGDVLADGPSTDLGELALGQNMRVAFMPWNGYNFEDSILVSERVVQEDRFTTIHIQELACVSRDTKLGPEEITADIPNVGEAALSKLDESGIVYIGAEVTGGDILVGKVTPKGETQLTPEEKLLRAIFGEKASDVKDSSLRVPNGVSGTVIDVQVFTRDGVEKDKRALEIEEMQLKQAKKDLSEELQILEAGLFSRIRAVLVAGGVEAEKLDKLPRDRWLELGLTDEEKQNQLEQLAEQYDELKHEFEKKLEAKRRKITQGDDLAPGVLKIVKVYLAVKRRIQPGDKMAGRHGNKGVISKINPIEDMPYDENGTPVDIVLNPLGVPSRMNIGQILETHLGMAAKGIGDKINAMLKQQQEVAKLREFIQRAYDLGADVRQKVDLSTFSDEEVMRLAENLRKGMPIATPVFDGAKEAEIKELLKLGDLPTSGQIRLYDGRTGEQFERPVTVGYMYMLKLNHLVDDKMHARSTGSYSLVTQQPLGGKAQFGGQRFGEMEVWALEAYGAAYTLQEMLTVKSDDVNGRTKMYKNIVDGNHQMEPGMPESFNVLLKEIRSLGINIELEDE
T1 sequence (P0A8T7 whole entry partner): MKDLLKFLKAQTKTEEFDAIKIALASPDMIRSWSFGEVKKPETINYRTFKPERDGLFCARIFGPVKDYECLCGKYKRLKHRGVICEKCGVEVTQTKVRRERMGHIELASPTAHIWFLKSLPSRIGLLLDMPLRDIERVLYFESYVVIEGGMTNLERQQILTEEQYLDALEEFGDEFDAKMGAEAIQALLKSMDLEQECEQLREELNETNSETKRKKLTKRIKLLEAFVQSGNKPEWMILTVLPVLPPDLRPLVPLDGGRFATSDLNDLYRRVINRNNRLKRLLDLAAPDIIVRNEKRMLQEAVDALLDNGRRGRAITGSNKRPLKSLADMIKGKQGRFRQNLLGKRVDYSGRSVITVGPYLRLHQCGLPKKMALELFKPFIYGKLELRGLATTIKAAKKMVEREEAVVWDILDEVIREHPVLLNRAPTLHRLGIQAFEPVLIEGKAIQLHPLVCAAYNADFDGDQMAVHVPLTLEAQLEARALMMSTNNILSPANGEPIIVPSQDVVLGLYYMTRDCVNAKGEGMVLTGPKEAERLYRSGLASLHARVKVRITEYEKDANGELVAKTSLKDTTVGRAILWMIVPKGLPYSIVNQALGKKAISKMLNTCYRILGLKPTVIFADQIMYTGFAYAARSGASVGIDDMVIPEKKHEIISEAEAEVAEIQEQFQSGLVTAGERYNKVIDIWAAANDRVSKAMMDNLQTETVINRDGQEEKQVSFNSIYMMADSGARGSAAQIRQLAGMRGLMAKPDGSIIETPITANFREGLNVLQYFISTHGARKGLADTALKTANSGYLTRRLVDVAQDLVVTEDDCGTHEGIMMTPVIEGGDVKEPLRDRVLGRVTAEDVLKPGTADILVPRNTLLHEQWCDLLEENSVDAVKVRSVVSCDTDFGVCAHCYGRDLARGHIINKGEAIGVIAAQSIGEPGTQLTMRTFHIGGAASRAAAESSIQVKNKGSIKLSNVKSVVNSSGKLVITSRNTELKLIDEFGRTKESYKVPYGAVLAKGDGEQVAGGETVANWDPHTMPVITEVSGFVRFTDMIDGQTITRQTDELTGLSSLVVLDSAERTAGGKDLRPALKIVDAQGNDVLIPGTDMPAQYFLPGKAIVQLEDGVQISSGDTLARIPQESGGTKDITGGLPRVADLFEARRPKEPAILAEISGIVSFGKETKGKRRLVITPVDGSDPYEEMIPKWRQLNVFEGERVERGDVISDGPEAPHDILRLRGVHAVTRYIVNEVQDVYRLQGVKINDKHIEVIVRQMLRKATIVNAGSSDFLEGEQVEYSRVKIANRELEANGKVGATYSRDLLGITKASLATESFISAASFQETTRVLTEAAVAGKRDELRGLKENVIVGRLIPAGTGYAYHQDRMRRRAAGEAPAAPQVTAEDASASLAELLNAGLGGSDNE
T1 sequence (P0A7Z4 whole entry partner): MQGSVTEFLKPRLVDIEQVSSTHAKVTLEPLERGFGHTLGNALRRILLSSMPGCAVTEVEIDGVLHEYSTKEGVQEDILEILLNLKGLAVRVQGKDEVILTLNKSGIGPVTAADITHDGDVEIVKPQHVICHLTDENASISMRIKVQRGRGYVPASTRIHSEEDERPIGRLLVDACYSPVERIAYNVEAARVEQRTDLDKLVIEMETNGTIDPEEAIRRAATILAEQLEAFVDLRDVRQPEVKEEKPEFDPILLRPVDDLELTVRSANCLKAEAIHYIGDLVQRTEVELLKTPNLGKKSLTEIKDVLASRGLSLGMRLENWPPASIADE
T1 sequence (P0A800 2-91 partner limits assumed): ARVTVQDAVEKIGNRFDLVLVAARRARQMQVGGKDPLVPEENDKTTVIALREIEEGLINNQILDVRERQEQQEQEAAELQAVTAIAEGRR
T1 sequence (P00579 whole entry partner): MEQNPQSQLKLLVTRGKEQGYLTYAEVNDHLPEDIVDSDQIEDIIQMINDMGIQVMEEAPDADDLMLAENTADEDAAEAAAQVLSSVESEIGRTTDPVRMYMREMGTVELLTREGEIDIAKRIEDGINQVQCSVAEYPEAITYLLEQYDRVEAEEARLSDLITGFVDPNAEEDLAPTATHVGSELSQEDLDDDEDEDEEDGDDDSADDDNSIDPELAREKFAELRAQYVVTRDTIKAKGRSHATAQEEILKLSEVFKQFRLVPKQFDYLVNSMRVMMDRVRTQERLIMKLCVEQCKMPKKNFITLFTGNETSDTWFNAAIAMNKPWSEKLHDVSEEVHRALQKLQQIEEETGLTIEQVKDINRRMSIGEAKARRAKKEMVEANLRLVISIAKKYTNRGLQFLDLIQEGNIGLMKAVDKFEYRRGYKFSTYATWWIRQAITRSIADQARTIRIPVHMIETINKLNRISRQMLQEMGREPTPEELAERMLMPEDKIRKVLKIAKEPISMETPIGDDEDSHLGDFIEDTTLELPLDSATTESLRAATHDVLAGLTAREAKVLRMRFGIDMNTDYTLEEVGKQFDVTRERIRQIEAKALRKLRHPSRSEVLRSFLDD

Row | SMILES | IC50 [2] | IC50 [3] | other results
1 | Cc1cc2nc3c(=O)[nH]c(=O)nc-3n(C[C@H](O)[C@H](O)[C@H](O)COP(=O)(O)O)c2cc1C [FMN, Flavin mononucleotide] | 116 nM | – | Signal (cpm) of captured polyA full-length transcript ([1]; FIG. 5A, 100 μM FMN versus no FMN, DNA sequence encoding a polyA sequence): significant decrease in signal; IC50 ([1]; FIG. 11, 12.5 μM each rNTP, 2.5 mM Mg2+, 0.1 Unit RNA polymerase, radiolabel detection): 45 nM
2 | Cc1ncc(C[n+]2csc(CCOP(=O)(O)O)c2C)c(N)n1 [TMP, Thiamine monophosphate] | – | > 25000 nM | –
3 | Cc1ncc(C[n+]2csc(CCO[P@](=O)(O)OP(=O)(O)O)c2C)c(N)n1 [TPP, Thiamine pyrophosphate] | – | 170 nM | –
4 | CO[C@H]1/C=C/O[C@@]2(C)Oc3c(C)c(O)c4c(O)c(c(/C=N/N5CCN(C)CC5)c(O)c4c3C2=O)NC(=O)/C(C)=C\C=C\[C@H](C)[C@H](O)[C@@H](C)[C@@H](O)[C@@H](C)[C@H](OC(C)=O)[C@@H]1C [rifampin] | – | – | IC50 (E. coli RNA polymerase): 8.2 nM
5 | Cc1cc2nc3c(=O)[nH]c(=O)nc-3n(C[C@H](O)[C@H](O)[C@H](O)CO)c2cc1N(C)C [roseoflavine, roseoflavin] | > 100000 nM | – | –
